Data as given in doi:10.1101/2021.09.30.462449v1 (biorxiv, 2021).

Columns and labels:
Assay in all cases: biochemical
Conditions in all cases: read-out: % inhibition mean (Lanthascreen)
ADCK3 = ADCK3 (Homo sapiens, UniProt Q8NI60)
PKN2 (PRK2) = PKN2 (PRK2) (Homo sapiens, UniProt Q16513)
[1] = molecular target: MAP2K1 (MEK1) S218D S222D (Homo sapiens, UniProt Q02750, S218D/S222D)
KIT A829P = KIT A829P (Homo sapiens, UniProt P10721, A829P)
STK32B (YANK2) = STK32B (YANK2) (Homo sapiens, UniProt Q9NY57)
MAPK8 (JNK1) = MAPK8 (JNK1) (Homo sapiens, UniProt P45983)
MET D1228H = MET D1228H (Homo sapiens, UniProt P08581, D1228H)
MAP2K2 (MEK2) = MAP2K2 (MEK2) (Homo sapiens, UniProt P36507)
TEC = TEC (Homo sapiens, UniProt P42680)
WNK2 = WNK2 (Homo sapiens, UniProt Q9Y3S1)
MAP2K5 (MEK5) = MAP2K5 (MEK5) (Homo sapiens, UniProt Q13163)
ALK F1174L = ALK F1174L (Homo sapiens, UniProt Q9UM73, F1174L)
TESK1 = TESK1 (Homo sapiens, UniProt Q15569)
RET M918T = RET M918T (Homo sapiens, UniProt P07949, M918T)
CDK2/cyclin O = CDK2/cyclin O (Homo sapiens, UniProt P24941)
STK38 (NDR) = STK38 (NDR) (Homo sapiens, UniProt Q15208)
MKNK2 (MNK2) = MKNK2 (MNK2) (Homo sapiens, UniProt Q9HBH9)
MAP2K6 (MKK6) = MAP2K6 (MKK6) (Homo sapiens, UniProt P52564)
DDR1 = DDR1 (Homo sapiens, UniProt Q08345)
LATS2 = LATS2 (Homo sapiens, UniProt Q9NRM7)
FGFR3 G697C = FGFR3 G697C (Homo sapiens, UniProt P22607, G697C)
GAK = GAK (Homo sapiens, UniProt O14976)
AMPK (A2/B2/G1) = AMPK (A2/B2/G1) (Homo sapiens, UniProt P54646)
BMPR2 = BMPR2 (Homo sapiens, UniProt Q13873)
ACVR2A = ACVR2A (Homo sapiens, UniProt P27037)
MLK4 = MLK4 (Homo sapiens, UniProt Q5TCX8)
TLK2 = TLK2 (Homo sapiens, UniProt Q86UE8)
FGFR3 K650M = FGFR3 K650M (Homo sapiens, UniProt P22607, K650M)

MAP2K5 (MEK5), sequence (Q13163 whole entry): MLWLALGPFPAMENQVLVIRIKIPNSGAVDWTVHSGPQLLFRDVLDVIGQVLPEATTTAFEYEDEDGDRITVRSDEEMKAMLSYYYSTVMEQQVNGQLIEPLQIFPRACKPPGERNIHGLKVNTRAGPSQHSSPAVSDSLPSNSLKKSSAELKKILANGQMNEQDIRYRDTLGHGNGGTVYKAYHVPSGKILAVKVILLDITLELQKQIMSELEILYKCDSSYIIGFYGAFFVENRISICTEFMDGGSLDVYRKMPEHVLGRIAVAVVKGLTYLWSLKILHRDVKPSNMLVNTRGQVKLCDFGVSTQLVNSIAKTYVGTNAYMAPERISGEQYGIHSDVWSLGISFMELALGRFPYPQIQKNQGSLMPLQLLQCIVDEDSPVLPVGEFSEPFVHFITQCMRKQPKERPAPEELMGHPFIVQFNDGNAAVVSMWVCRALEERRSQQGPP
ALK F1174L, sequence (Q9UM73 whole entry F1174L): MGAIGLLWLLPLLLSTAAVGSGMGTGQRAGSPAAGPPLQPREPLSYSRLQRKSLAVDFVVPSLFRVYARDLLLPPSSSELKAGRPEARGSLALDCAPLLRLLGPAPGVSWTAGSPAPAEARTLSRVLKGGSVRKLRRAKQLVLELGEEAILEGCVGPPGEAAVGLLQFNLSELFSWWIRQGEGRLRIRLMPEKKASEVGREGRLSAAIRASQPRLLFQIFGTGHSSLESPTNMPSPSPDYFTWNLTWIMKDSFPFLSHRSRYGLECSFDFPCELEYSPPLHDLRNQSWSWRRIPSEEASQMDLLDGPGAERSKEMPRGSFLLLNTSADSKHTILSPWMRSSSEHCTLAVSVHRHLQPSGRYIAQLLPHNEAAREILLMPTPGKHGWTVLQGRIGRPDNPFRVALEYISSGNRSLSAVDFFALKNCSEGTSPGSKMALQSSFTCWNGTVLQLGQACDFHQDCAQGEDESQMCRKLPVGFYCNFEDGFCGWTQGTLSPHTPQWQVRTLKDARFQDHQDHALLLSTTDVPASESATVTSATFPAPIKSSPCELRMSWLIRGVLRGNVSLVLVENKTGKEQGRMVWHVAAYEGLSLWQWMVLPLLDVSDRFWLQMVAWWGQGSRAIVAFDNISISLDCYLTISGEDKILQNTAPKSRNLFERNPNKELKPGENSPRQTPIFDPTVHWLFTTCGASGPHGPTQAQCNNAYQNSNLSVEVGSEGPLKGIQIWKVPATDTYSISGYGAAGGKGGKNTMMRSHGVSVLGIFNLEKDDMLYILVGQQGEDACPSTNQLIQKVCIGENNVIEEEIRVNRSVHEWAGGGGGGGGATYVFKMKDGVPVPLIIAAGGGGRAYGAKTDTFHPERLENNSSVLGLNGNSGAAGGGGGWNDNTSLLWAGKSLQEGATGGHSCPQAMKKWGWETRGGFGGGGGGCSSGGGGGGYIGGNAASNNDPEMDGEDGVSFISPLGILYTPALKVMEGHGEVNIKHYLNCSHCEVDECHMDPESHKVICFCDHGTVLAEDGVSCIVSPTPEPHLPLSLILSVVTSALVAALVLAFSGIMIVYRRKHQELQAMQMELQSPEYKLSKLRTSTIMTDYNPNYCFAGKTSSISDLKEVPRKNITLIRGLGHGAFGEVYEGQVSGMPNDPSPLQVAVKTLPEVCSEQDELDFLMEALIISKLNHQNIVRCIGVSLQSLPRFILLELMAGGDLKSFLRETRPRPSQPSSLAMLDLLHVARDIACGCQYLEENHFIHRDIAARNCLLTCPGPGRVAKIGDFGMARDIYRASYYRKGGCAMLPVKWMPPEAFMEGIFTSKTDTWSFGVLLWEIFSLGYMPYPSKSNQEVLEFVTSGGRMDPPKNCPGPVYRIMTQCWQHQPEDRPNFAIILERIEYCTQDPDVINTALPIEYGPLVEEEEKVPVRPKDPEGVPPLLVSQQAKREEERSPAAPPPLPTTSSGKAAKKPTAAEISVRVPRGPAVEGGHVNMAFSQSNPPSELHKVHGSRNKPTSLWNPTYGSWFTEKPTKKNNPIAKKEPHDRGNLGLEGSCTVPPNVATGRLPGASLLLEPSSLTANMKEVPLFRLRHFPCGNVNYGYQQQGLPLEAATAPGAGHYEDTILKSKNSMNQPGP
MKNK2 (MNK2), sequence (Q9HBH9 whole entry): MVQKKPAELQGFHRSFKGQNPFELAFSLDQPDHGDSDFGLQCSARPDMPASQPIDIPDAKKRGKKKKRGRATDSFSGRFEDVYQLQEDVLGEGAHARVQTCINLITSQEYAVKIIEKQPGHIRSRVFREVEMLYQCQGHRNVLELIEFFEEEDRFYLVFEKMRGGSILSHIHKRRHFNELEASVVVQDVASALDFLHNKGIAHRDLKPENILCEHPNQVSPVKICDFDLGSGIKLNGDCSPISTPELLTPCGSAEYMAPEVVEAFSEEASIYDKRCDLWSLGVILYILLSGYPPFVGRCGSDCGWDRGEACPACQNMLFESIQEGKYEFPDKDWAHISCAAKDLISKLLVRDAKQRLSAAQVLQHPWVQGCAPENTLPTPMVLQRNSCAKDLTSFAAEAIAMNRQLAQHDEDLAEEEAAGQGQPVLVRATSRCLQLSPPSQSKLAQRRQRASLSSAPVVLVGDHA
TLK2, sequence (Q86UE8 whole entry): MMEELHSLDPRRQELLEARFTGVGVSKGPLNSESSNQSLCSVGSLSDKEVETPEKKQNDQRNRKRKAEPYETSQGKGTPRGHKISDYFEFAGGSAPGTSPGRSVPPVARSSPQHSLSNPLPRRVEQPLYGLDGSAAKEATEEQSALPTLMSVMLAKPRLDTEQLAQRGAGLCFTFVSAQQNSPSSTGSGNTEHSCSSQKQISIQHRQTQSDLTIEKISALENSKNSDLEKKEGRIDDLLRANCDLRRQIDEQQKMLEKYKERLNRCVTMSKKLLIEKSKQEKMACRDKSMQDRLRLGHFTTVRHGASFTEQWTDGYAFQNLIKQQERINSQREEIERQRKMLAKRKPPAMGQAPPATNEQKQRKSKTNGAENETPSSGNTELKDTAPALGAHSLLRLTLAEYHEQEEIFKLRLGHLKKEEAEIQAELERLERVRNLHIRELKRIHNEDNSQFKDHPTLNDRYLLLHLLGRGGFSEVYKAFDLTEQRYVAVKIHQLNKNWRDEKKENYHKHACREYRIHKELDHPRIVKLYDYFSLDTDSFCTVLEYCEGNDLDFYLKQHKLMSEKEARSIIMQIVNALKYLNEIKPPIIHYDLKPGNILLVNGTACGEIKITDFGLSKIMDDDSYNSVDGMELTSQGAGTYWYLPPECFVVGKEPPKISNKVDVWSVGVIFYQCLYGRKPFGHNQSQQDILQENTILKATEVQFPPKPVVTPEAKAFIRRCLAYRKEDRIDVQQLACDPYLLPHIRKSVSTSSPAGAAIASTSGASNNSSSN
MAP2K2 (MEK2), sequence (P36507 whole entry): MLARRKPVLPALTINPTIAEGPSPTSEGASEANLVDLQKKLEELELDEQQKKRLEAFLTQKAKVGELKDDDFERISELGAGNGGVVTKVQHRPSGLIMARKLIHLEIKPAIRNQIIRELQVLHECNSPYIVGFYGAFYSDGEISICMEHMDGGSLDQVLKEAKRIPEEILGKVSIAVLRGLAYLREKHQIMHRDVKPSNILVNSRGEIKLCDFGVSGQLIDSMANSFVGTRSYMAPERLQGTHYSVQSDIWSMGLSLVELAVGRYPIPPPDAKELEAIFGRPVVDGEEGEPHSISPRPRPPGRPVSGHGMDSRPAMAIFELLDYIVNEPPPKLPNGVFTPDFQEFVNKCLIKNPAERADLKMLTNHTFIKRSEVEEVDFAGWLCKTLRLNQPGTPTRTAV
ACVR2A, sequence (P27037 whole entry): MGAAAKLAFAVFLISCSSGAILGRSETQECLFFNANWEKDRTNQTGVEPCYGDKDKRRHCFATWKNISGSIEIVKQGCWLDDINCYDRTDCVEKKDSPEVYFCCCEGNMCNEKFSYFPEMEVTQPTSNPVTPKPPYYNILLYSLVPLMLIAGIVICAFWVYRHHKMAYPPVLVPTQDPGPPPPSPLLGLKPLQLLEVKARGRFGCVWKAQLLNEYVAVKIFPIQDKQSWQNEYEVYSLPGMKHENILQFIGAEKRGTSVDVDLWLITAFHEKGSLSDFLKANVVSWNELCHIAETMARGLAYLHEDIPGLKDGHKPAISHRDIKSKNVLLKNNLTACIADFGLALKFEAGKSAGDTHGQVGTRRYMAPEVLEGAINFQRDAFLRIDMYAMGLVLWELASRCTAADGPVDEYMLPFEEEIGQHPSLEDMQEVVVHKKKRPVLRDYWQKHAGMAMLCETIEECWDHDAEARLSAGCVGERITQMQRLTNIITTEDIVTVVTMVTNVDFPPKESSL
ADCK3, sequence (Q8NI60 whole entry): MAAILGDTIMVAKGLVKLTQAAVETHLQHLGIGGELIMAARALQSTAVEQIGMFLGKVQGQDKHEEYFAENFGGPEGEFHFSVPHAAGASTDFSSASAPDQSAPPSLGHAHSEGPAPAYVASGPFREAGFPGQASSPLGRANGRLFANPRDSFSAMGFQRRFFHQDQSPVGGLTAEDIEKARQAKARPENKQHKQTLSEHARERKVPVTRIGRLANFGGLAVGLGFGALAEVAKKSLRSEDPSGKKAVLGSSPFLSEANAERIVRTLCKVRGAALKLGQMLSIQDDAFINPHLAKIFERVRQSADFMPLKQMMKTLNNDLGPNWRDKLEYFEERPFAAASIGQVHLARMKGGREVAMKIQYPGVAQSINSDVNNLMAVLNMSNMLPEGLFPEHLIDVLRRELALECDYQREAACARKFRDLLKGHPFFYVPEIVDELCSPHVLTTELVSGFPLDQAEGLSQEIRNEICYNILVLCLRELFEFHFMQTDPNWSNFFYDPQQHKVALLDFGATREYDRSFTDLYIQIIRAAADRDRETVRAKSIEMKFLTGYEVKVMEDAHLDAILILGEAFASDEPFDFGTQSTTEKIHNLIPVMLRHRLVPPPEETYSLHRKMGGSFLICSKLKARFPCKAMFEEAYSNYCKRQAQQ

In the case of `COc1ccc2nc3cc(Cl)ccc3c(Nc3cc(CN4CCCC4)c(O)c(CN4CCCC4)c3)c2n1` [Pyronaridine, 4-[(7-Chloro-2-methoxybenzo[b][1,5]naphthyridin-10-yl)amino]-2,6-bis(1-pyrrolidinylmethyl)phenol phosphate (1:4)], the inhibition at 1 µM (ADCK3) is reported as -16%, the inhibition at 1 µM (PKN2 (PRK2)) is reported as 6% and the inhibition at 1 µM [1] is reported as 3%. The inhibition at 1 µM (KIT A829P) was -9%, the inhibition at 1 µM (STK32B (YANK2)) was 0% and the inhibition at 1 µM (MAPK8 (JNK1)) was 3%. For the same compound, the inhibition at 1 µM (MET D1228H) was 3%, the inhibition at 1 µM (MAP2K2 (MEK2)) was -3% and the inhibition at 1 µM (TEC) was 7%. The inhibition at 1 µM (WNK2) was 4%, the inhibition at 1 µM (MAP2K5 (MEK5)) was 1% and the inhibition at 1 µM (ALK F1174L) was 8%. It also gave an inhibition at 1 µM (TESK1) of -2%, an inhibition at 1 µM (RET M918T) of -3% and an inhibition at 1 µM (CDK2/cyclin O) of 2%. For the same compound, the inhibition at 1 µM (STK38 (NDR)) was 2%, the inhibition at 1 µM (MKNK2 (MNK2)) was 2% and the inhibition at 1 µM (MAP2K6 (MKK6)) was 9%. For the same compound, the inhibition at 1 µM (DDR1) was -2%, the inhibition at 1 µM (LATS2) was -4% and the inhibition at 1 µM (FGFR3 G697C) was 7%. For the same compound, the inhibition at 1 µM (GAK) was 28%, the inhibition at 1 µM (AMPK (A2/B2/G1)) was 6% and the inhibition at 1 µM (BMPR2) was 8%. It also gave an inhibition at 1 µM (ACVR2A) of -6%, an inhibition at 1 µM (MLK4) of 8% and an inhibition at 1 µM (TLK2) of -2%. It also gave an inhibition at 1 µM (FGFR3 K650M) of -4%.
